Where a name gives a salt, the structure may show the parent alone. Read-outs that look alike come from different tables or passages of the source.
Test system: L929sAhFas
Assay: cells
Parameters: high-content necroptosis screen, percentage PI-positive nuclei as percent of DMSO plus stimulus control
Text: To identify novel inhibitors or regulators of necroptosis, 500 small compounds from libraries targeting autophagy, kinases, phosphatases, proteases and redox balance were screened for their ability to block TNF-induced necroptosis in murine L929sAhFas cells. Three conditions were used to induce necroptosis in L929 cells: TNF alone, TNF+TAK1 inhibitor (TAK1i) and TNF+zVAD-fmk, a pan-caspase inhibitor. Inhibition of TAK1 or caspases sensitizes to necroptosis.[13], [32] Necroptosis, measured as the percentage of PI-positive nuclei normalized to the plate-specific DMSO control, was determined for each compound (Supplementary Figure 1A). […] After compound treatment, L929sAhFas (a) or L929 (b) cells were stimulated with mTNF (T), mTNF+Tak1i (TiT) or mTNF+zVAD (zVT) (Supplementary Figure 1A and B). (a) Cell death percentage (% PI-positive nuclei) or cell loss was calculated as percent of control (DMSO+stimulus). […] (b) Cell loss (luminescence-based readout for ATP) was calculated as percent of control (DMSO+stimulus). […] In stimulated conditions, % PI-positive nuclei was determined as % of DMSO control. Data represent mean values±S.E.M. of two independent experiments. Cells were stained with Hoechst and PI and percentage PI-positive nuclei was determined using high-content image analysis (BD pathway Bioimager). (d) L929sAhFas cells were treated with Sorafenib (concentration as indicated) for 24 h. Then, stimulus was removed, 50 cells/condition seeded and colonies counted with crystal violet staining after 10 days incubation. […] Schemes of workflow screening assays in L929 cell lines. (A) Scheme of the workflow of a high-content screening assay on L929sAhFas cells using mTNF (T) and mTNF+Tak1i ((5Z)-7-Oxozeaenol) (TiT) to induce necroptotic cell death. Nec-1 and zVAD-fmk were used as protective and sensitizing benchmarks, respectively, on all plates. (B) Scheme of the workflow of a CellTiter-Glo luminescent cell viability screening assay on L929 cells using mTNF+zVAD (zVT) to induce necroptotic cell death. Supplementary Figure S2. Z’ calculation for cell death screening assays in L929 cells. (A) Z’ calculation for cell death screening assay (Fig. 1A) in mTNF-stimulated L929sAhFas cells. (B) Z’ calculation for cell death screening assay (Fig. 1A) in L929sAhFas cells stimulated with mTNF + Taki.

[1] = read-out: cell death TNF/Taki (POC)

| SMILES | activity at 10 µM (read-out: cell death TNF (POC)) [%] | activity at 10 µM [1] [%] |
| --- | --- | --- |
| COc1cc2ncnc(Nc3cccc(Cl)c3)c2cc1OC [TYRPHOSTIN AG 1478] | 84.2 | 98.7 |
| N#CC(C#N)=C(N)/C(C#N)=C/c1ccc(O)cc1 [Tyrphostin AG112] | 89.4 | 98.7 |
| C=CC(=O)c1ccc2ccccc2c1 [ZM 449829] | 87.3 | 99.6 |
| N#CC(C#N)=Cc1ccc(O)c(O)c1 [TYRPHOSTIN 23] | 88.9 | 100 |
| CC1=C(O)C(=O)[C@@H]2O[C@@H]2C1=O [Terreic acid] | 104 | 99.1 |
| Cc1ccc(NC(=O)c2ccc(CN3CCN(C)CC3)cc2)cc1Nc1nccc(-c2cccnc2)n1 [Imatinib mesylate] | 63.9 | 96.1 |
| N#CC(C#N)=Cc1ccc([N+](=O)[O-])c(O)c1 [AG-126] | 94.7 | 99.4 |
| CC(C)(C)n1nc(-c2ccc(Cl)cc2)c2c(N)ncnc21 [PP2] | 127 | 100 |
| O=c1c(O)c(-c2ccc(O)c(O)c2)oc2cc(O)cc(O)c12 [Quercetin·2H2O] | 90.4 | 98.5 |
| C#Cc1cccc(Nc2ncnc3cc(OC)c(OC)cc23)c1 [BML-265] | 118 | 99.6 |
| O=C1Cc2c([nH]c3ccc(Br)cc23)-c2ccccc2N1 [Kenpaullone] | 162 | 99.9 |
| N#CC(C#N)=Cc1cc(O)c(O)c([N+](=O)[O-])c1 [TYRPHOSTIN AG 1288] | 81.1 | 99.7 |
| O=S(=O)(c1cccc2c(I)cccc12)N1CCCNCC1 [ML-7·HCl] | 90.2 | 99.4 |
| CC(C)c1cc(/C=C(\C#N)C(=O)NCCCc2ccccc2)cc(C(C)C)c1O [SU1498] | 91.7 | 99.2 |
| COc1cccc(-c2cc(=O)c3ccccc3o2)c1N [PD-98059] | 70.9 | 98.9 |
| Oc1ccc(-c2nc(-c3ccc(F)cc3)c(-c3ccncc3)[nH]2)cc1 [SB-202190] | 110 | 96.3 |
| N#C/C(=C\c1ccc(O)c(O)c1)C(N)=O [TYRPHOSTIN 46] | 97.8 | 99.8 |
| N#CC(C#N)=Cc1cc(O)c(O)c(O)c1 [TYRPHOSTIN 25] | 90 | 100 |
| O=C1Nc2ccccc2/C1=C1/Nc2ccccc2C1=O [Indirubin] | 91.7 | 99.1 |
| O=c1cc(N2CCOCC2)oc2c(-c3ccccc3)cccc12 [LY 294002] | 85.7 | 99.2 |
| O=C(O)c1ccc2nc(-c3ccccc3)c(-c3ccccc3)nc2c1 [BML-257] | 91.3 | 99.7 |
| N#C/C(=C\c1ccc(O)c(O)c1)C(N)=S [TYRPHOSTIN 47] | 93 | 100 |

| SMILES | activity at 10 µM (read-out: cell death TNF (POC)) [%] | activity at 10 µM [1] [%] |
| --- | --- | --- |
| N#CC(=C(/N)Sc1ccccc1N)/C(C#N)=C(\N)Sc1ccccc1N [U-0126] | 69.7 | 98.7 |
| O=C1Nc2ccc(I)cc2/C1=C/c1cc(Br)c(O)c(Br)c1 [GW 5074] | 90 | 99.1 |
| O=S(=O)(c1cccc2c(Cl)cccc12)N1CCCNCC1 [ML-9·HCl] | 84.8 | 99.8 |
| C[C@@H](N)[C@H]1CC[C@H](C(=O)Nc2ccncc2)CC1 [Y-27632·2HCl] | 93.3 | 98.6 |
| N#CC(=Cc1ccc2[nH]ccc2c1)C(N)=C(C#N)C#N [AG-370] | 86 | 99.7 |
| Cc1ccc(-c2nn(C(C)(C)C)c3ncnc(N)c23)cc1 [PP1] | 114 | 100 |
| C[S+]([O-])c1ccc(-c2nc(-c3ccc(F)cc3)c(-c3ccncc3)[nH]2)cc1 (centres unmarked) [SB-203580] | 108 | 99.6 |
| Cc1cc2ncc(-c3ccccc3)nc2cc1C [TYRPHOSTIN AG 1295] | 93.6 | 100 |
| N#C/C(=C\c1cc(Cl)cc(Cl)c1)c1cccnc1 [RG-14620] | 95.9 | 99.8 |
| O=P(O)(O)C(O)c1ccc2ccccc2c1 (centres unmarked) [HNMPA] | 80.3 | 100 |
| CCN(CC)CCNC(=O)c1c(C)[nH]c(/C=C2\C(=O)Nc3ccc(Cl)cc32)c1C [SU11652] | 194 | 104 |
| N#CC(C#N)=C(N)/C(C#N)=C/c1cc(O)c(O)c(O)c1 [TYRPHOSTIN 51] | 116 | 101 |
| COC[C@H]1OC(=O)c2coc3c2[C@@]1(C)C1=C(C3=O)[C@@H]2CCC(=O)[C@@]2(C)C[C@H]1OC(C)=O [Wortmannin] | 99.4 | 101 |
| c1ccc2c(-c3ccncc3)c[nH]c2c1 [Rockout] | 106 | 99 |
| COc1cc(/C=C(\C#N)C(N)=O)cc(CSc2nc3ccccc3s2)c1O [AG-825] | 80.1 | 99.4 |
| Nc1ncnc2c1c(I)cn2[C@@H]1O[C@H](CO)[C@@H](O)[C@H]1O [5-Iodotubercidin] | 229 | 101 |
| Cn1cnc(N)c2ncnc1-2 [3-Methyladenine] | 88.7 | 102 |
| Cc1ccc(NC(=O)c2cccc(N(C)C)c2)cc1NC(=O)c1ccc(O)cc1 [ZM 336372] | 81.9 | 99.4 |
| O=c1c(-c2ccc(O)cc2)coc2cc(O)cc(O)c12 [Genistein] | 86.1 | 99.3 |
| C/C(O)=C(\C#N)C(=O)Nc1cc(Br)ccc1Br [LFM-A13] | 93.5 | 100 |
| O=C(O)c1cc(N(Cc2ccccc2O)Cc2cc(O)ccc2O)ccc1O [Lavendustin A] | 85.9 | 100 |

From PMC5520944 (Cell Death & Disease, 2017)
